Results as given in US10351594B2, “Process for preparing compounds having triple activities of thrombolysis, antithrombosis, and radical scavenging” (Shanghai Lumosa Therapeutics Co., Ltd., priority 2013, dated 2019).
Where two headings read alike, the source gives them in different places.

System: stroke rats
[1] = 2.5 μmol/kg 5Ak after 6 hours from stroke onset, 1st day
[2] = 2.5 μmol/kg 5Ak after 6 hours from stroke onset, 2nd day
[3] = 2.5 μmol/kg 5Ak after 6 hours from stroke onset, 3rd day
[4] = 2.5 μmol/kg 5Ak after 6 hours from stroke onset, 4th day
[5] = 2.5 μmol/kg 5Ak after 6 hours from stroke onset, 5th day
[6] = 2.5 μmol/kg 5Ak after 6 hours from stroke onset, 6th day
[7] = 2.5 μmol/kg 5Ak after 24 hours from stroke onset, 1st day
[8] = 2.5 μmol/kg 5Ak after 24 hours from stroke onset, 2nd day
[9] = 2.5 μmol/kg 5Ak after 24 hours from stroke onset, 3rd day
[10] = 2.5 μmol/kg 5Ak after 24 hours from stroke onset, 4th day
[11] = 2.5 μmol/kg 5Ak after 24 hours from stroke onset, 5th day
[12] = 2.5 μmol/kg 5Ak after 24 hours from stroke onset, 6th day
[13] = 5 μmol/kg 5Ak after 24 hours from stroke onset, 1st day
[14] = 5 μmol/kg 5Ak after 24 hours from stroke onset, 2nd day
[15] = 5 μmol/kg 5Ak after 24 hours from stroke onset, 3rd day
[16] = 5 μmol/kg 5Ak after 24 hours from stroke onset, 4th day
[17] = 5 μmol/kg 5Ak after 24 hours from stroke onset, 5th day
[18] = 5 μmol/kg 5Ak after 24 hours from stroke onset, 6th day
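Note: male SD rats with thrombus-induced cerebral embolism via internal carotid artery, scored daily by Zealonga neurological deficit scale (0 no deficit to 5 death), lower score better.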

Description: The therapeutic effect was evaluated by neurological functional scores. The lower the score was, the better the therapeutic effect was. A 10% chloral hydrate solution was injected intraperitoneally into male SD rats at a dosage of 400 mg/kg body weight for anesthesia. A longitudinal incision was made at the center of the neck, and the right common carotid artery trunk was separated (about 3 cm in length). External carotid artery branches were each separated and ligated at the hyoid level, and the internal carotid artery was separated from the swollen part of the neck. The incision of the internal carotid artery and the proximal end of the common carotid artery were clipped respectively with noninvasive arterial clips, and the distal end of the external carotid artery was ligated. A catheter containing 0.5 mL thrombus suspension in normal saline was inserted in the external carotid artery trunk. When the clip on the internal carotid artery was released, the 0.5 mL thrombus suspension in normal saline in the catheter slowly flew from the external carotid artery to its proximal end, and then was injected into the arteries in brain through the internal carotid artery. Subsequently, the proximal end of the internal carotid artery was ligated, the arterial clips on the internal carotid artery and the common carotid artery were released, and blood flow was restored. After the wound was stitched up, 20,000 IU penicillin was intramuscularly injected for prevention from infection. […] Self-comparison was performed each day, and the neurological deficit degree was evaluated by the Zealonga method. A score of 0 indicated no sign of loss in neural function, 1 indicated the front limbs on the undamaged side could not stretch out, 2 indicated walking toward the undamaged side, 3 indicated tail-chasing walking in circles toward the undamaged side, 4 indicated involuntary walking with disturbance of consciousness, and 5 indicated death.

Q: Which results are given for `C[C@H](NC(=O)[C@@H]1CCCN1)C(=O)N[C@@H](CCCCN)C(=O)NCCCC[C@H](NC(=O)[C@@H]1Cc2cc(O)c(O)cc2C(C)(C)N1)C(=O)O` [Compound 5Ak, 3S-6,7-dihydroxy-1,1-dimethyl-1,2,3,4-tetrahydro-isoquinoline-3-acyl-Lys(Pro-Ala-Lys)]?
A: therapeutic effect, result in words (2.5 μmol/kg 5Ak after 6 hours from stroke onset): better therapeutic effect than 1 μmol/kg 5Ak; Daily neural function scores, number of rats under 0 score [1]: 1; Daily neural function scores, number of rats under 1 score [1]: 7; Daily neural function scores, number of rats under 2 scores [1]: 0; Daily neural function scores, number of rats under 3 scores [1]: 1; Daily neural function scores, number of rats under 4 scores [1]: 0; Daily neural function scores, number of rats under 5 scores [1]: 0; Daily neural function scores, number of rats under 0 score [2]: 3; Daily neural function scores, number of rats under 1 score [2]: 4; Daily neural function scores, number of rats under 2 scores [2]: 2; Daily neural function scores, number of rats under 3 scores [2]: 0; Daily neural function scores, number of rats under 4 scores [2]: 0; Daily neural function scores, number of rats under 5 scores [2]: 0; Daily neural function scores, number of rats under 0 score [3]: 6; Daily neural function scores, number of rats under 1 score [3]: 2; Daily neural function scores, number of rats under 2 scores [3]: 1; Daily neural function scores, number of rats under 3 scores [3]: 0; Daily neural function scores, number of rats under 4 scores [3]: 0; Daily neural function scores, number of rats under 5 scores [3]: 0; Daily neural function scores, number of rats under 0 score [4]: 6; Daily neural function scores, number of rats under 1 score [4]: 3; Daily neural function scores, number of rats under 2 scores [4]: 0; Daily neural function scores, number of rats under 3 scores [4]: 0; Daily neural function scores, number of rats under 4 scores [4]: 0; Daily neural function scores, number of rats under 5 scores [4]: 0; Daily neural function scores, number of rats under 0 score [5]: 5; Daily neural function scores, number of rats under 1 score [5]: 4; Daily neural function scores, number of rats under 2 scores [5]: 0; Daily neural function scores, number of rats under 3 scores [5]: 0; Daily neural function scores, number of rats under 4 scores [5]: 0; Daily neural function scores, number of rats under 5 scores [5]: 0; Daily neural function scores, number of rats under 0 score [6]: 7; Daily neural function scores, number of rats under 1 score [6]: 2; Daily neural function scores, number of rats under 2 scores [6]: 0; Daily neural function scores, number of rats under 3 scores [6]: 0; Daily neural function scores, number of rats under 4 scores [6]: 0; Daily neural function scores, number of rats under 5 scores [6]: 0; therapeutic effect, result in words (2.5 μmol/kg 5Ak after 24 hours from stroke onset): certain therapeutic effect; Daily neural function scores, number of rats under 0 score [7]: 1; Daily neural function scores, number of rats under 1 score [7]: 4; Daily neural function scores, number of rats under 2 scores [7]: 1; Daily neural function scores, number of rats under 3 scores [7]: 0; Daily neural function scores, number of rats under 4 scores [7]: 1; Daily neural function scores, number of rats under 5 scores [7]: 0; Daily neural function scores, number of rats under 0 score [8]: 3; Daily neural function scores, number of rats under 1 score [8]: 2; Daily neural function scores, number of rats under 2 scores [8]: 1; Daily neural function scores, number of rats under 3 scores [8]: 1; Daily neural function scores, number of rats under 4 scores [8]: 0; Daily neural function scores, number of rats under 5 scores [8]: 0; Daily neural function scores, number of rats under 0 score [9]: 3; Daily neural function scores, number of rats under 1 score [9]: 2; Daily neural function scores, number of rats under 2 scores [9]: 1; Daily neural function scores, number of rats under 3 scores [9]: 0; Daily neural function scores, number of rats under 4 scores [9]: 0; Daily neural function scores, number of rats under 5 scores [9]: 1; Daily neural function scores, number of rats under 0 score [10]: 2; Daily neural function scores, number of rats under 1 score [10]: 2; Daily neural function scores, number of rats under 2 scores [10]: 1; Daily neural function scores, number of rats under 3 scores [10]: 1; Daily neural function scores, number of rats under 4 scores [10]: 0; Daily neural function scores, number of rats under 5 scores [10]: 0; Daily neural function scores, number of rats under 0 score [11]: 4; Daily neural function scores, number of rats under 1 score [11]: 0; Daily neural function scores, number of rats under 2 scores [11]: 1; Daily neural function scores, number of rats under 3 scores [11]: 0; Daily neural function scores, number of rats under 4 scores [11]: 0; Daily neural function scores, number of rats under 5 scores [11]: 1; Daily neural function scores, number of rats under 0 score [12]: 3; Daily neural function scores, number of rats under 1 score [12]: 1; Daily neural function scores, number of rats under 2 scores [12]: 1; Daily neural function scores, number of rats under 3 scores [12]: 0; Daily neural function scores, number of rats under 4 scores [12]: 0; Daily neural function scores, number of rats under 5 scores [12]: 0; rats that died during successive 6-day treatment (2.5 μmol/kg 5Ak once per day after 6 hours from stroke onset, nine rats): no death occurred; rats that died during successive 6-day treatment (2.5 μmol/kg 5Ak once per day after 24 hours from stroke onset, seven rats): two; therapeutic effect, result in words (5 μmol/kg 5Ak after 24 hours from stroke onset): definite therapeutic effect; Daily neural function scores, number of rats under 0 score [13]: 0; Daily neural function scores, number of rats under 1 score [13]: 5; Daily neural function scores, number of rats under 2 scores [13]: 4; Daily neural function scores, number of rats under 3 scores [13]: 0; Daily neural function scores, number of rats under 4 scores [13]: 1; Daily neural function scores, number of rats under 5 scores [13]: 0; Daily neural function scores, number of rats under 0 score [14]: 2; Daily neural function scores, number of rats under 1 score [14]: 6; Daily neural function scores, number of rats under 2 scores [14]: 2; Daily neural function scores, number of rats under 3 scores [14]: 0; Daily neural function scores, number of rats under 4 scores [14]: 0; Daily neural function scores, number of rats under 5 scores [14]: 0; Daily neural function scores, number of rats under 0 score [15]: 2; Daily neural function scores, number of rats under 1 score [15]: 6; Daily neural function scores, number of rats under 2 scores [15]: 2; Daily neural function scores, number of rats under 3 scores [15]: 0; Daily neural function scores, number of rats under 4 scores [15]: 0; Daily neural function scores, number of rats under 5 scores [15]: 0; Daily neural function scores, number of rats under 0 score [16]: 5; Daily neural function scores, number of rats under 1 score [16]: 5; Daily neural function scores, number of rats under 2 scores [16]: 0; Daily neural function scores, number of rats under 3 scores [16]: 0; Daily neural function scores, number of rats under 4 scores [16]: 0; Daily neural function scores, number of rats under 5 scores [16]: 0; Daily neural function scores, number of rats under 0 score [17]: 6; Daily neural function scores, number of rats under 1 score [17]: 4; Daily neural function scores, number of rats under 2 scores [17]: 0; Daily neural function scores, number of rats under 3 scores [17]: 0; Daily neural function scores, number of rats under 4 scores [17]: 0; Daily neural function scores, number of rats under 5 scores [17]: 0; Daily neural function scores, number of rats under 0 score [18]: 7; Daily neural function scores, number of rats under 1 score [18]: 3; Daily neural function scores, number of rats under 2 scores [18]: 0; Daily neural function scores, number of rats under 3 scores [18]: 0; Daily neural function scores, number of rats under 4 scores [18]: 0; Daily neural function scores, number of rats under 5 scores [18]: 0; rats that died during successive 6-day treatment (5 μmol/kg 5Ak once per day after 24 hours from stroke onset, ten rats): no death occurred
